Where two headings read alike, the source gives them in different places.
Key:
[1] = Oxygen radical absorbance capacity (ORAC) assay; details: Trolox equivalents; AAPH, fluorescein
Experimental: The ORAC test was performed to evaluate the oxygen free radical scavenger capacity of the compounds. […] Compounds at desired concentrations (0.03, 0.1, 0.3, 1, 3, and 10 µM) were diluted in phosphate-buffered saline (PBS; 10 mM, pH 7.4) at 37 °C and placed in a 96 black flat bottom well plate. […] A fluorescence measurement was done first to determine the basal signal. Then, 25 µL of 2, 2′-azobis-amidinopropane dihydrochloride (AAPH) (12 mM final concentration) was quickly added. All samples were measured in duplicates in three different experiments. […] Results were expressed in terms of Trolox equivalents (T.eq.), obtained by plotting net AUC versus compound concentration, then performing linear regression and normalizing slopes of the compounds considering Trolox as reference.

IL-1β = IL-1β levels by ELISA in LPS stimulated primary mixed glial cultures; type: cell-based, rat; details: compound 10 μM; LPS 1 µg/mL 18 h
Experimental: (§1) Cells were cultured for 7–10 days before treatment.
(§2) Primary glial cells were pre-treated with compounds at the desired concentration for 24 h. Then, treatments were removed and glial cells were incubated with lipopolysaccharide (LPS, 1 μg/mL; Sigma–Aldrich, Spain) in the presence of each compound at the desired concentration for 18 h. Nitrite production was then assessed by modified Griess assay. Briefly, 150 µL of each sample was mixed with 75 µL of 4,4′-diamino-diphenylsulfone (Dapsone) and 75 µL of N-(1-naphthyl)ethylenediamine (Neda). The mixture was incubated at room temperature for 5 min. […] Data were normalized to basal conditions, setting this value as 100% of nitrite production. EC50 values were calculated from dose–response curves obtained from representing percentage of nitrites reduction vs. compound concentration.
Supernatants obtained from mixed primary glial cell cultures were used to determine IL-1β levels by quantitative ELISA kits (Preprotech, R&D Systems-bioNova, Madrid, Spain) following the manufacturer’s instructions. Commercial solution of IL-1β was used to generate a standard curve for sample quantification. Absorbance was measured in a microplate reader SPECTROstar Nano (BMG Labtech) at 405 with 650 nm correction.

[2] = system: Mixed primary glial cultures; assay: Cytotoxicity in mixed primary glial cultures (MTT); details: MTT reduction
Experimental: Mixed primary glial cultures were obtained from cerebral cortex of 2–5-day-old Sprague–Dawley rats. Blood vessels and meninges were first removed in Hank’s balanced salt solution (HBSS) and then forebrains were dissociated in DMEM/F12 medium. After mechanical dissociation, filtering, and centrifugation at 800 rpm for 10 min, cells were plated at a density of 30,000 cells/well in DMEM/F12 medium with 20% (v/v) FBS and 1% penicillin/streptomycin (10,000 units). […] After 5 days, medium was substituted by DMEM/F12 medium with 10% (v/v) FBS. Cells were cultured for 7–10 days before treatment.
Basal absorbance was set to 100% and results were normalized to basal conditions.
Cytotoxicity. LD50 values in several cell cultures employed
Table S2. Cytotoxicity elicited by 10-18 compounds in SH-SY5Y, AREc32 and mixed pr imary glial cultures. Viability was measured as MTT reduction in presence of increasing concentrations of der ivatives. LD50 values were calcula ted from dose-response curves. Data are expr essed as mean ± SEM of at least 3 independent experiments.
1.3. PAMPA control compounds (BBB permeability)
Table S3. Pr ediction of the BBB passive permeability of control compounds

hrMAO-A = target: T1, hrMAO-A (Homo sapiens, UniProt P21397); assay: Inhibition of monoamine oxidase A (Amplex UltraRed, tyramine); type: biochemical
T1 construct: purchased Sigma–Aldrich
T1 sequence (P21397 1-527): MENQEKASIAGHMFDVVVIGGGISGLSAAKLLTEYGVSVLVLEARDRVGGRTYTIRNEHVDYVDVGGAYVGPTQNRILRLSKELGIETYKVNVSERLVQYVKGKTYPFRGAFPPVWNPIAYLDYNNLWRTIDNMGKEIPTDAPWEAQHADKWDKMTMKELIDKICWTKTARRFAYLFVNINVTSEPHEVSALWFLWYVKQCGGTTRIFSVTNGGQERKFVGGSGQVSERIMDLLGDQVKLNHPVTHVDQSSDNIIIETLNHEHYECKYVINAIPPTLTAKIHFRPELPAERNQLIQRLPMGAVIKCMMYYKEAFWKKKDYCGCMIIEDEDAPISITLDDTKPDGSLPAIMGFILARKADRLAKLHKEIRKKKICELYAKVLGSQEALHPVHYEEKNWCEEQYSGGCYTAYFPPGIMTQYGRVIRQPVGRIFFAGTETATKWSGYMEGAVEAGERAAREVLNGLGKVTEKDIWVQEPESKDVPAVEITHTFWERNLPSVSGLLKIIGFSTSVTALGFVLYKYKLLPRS

[3] = Blood–brain barrier permeation assay (PAMPA); details: BBB permeability class from Pe
Experimental: Briefly, permeability of the compounds was measured at an initial concentration of 100 µM, including positive and negative controls (Supplementary Data; Table S3). […] After 5 min, 180 µL of each compound solution in PBS (10 mM, pH 7.4) was added to determine their ability to pass the membrane (VD). The 96-well acceptor plate (Multiscreen, Millipore Corp., Madrid Spain) was loaded with 180 µL of PBS (VA). Then, the donor filter plate was carefully placed on the acceptor plate to form a sandwich-like system, which was left undisturbed for 4 h at room temperature. After incubation, the donor plate was removed and the absorbance at the maximum absorption wavelength for each compound was recorded in both the acceptor and donor wells (150 µL/well) using a UV plate reader SPECTROstar Nano (BMG Labtech, Ortenberg, Germany). Concentration of the compounds in the donor and acceptor plates and equilibrium concentration were calculated and expressed as permeability (Pe) according the Equation (1). Results are expressed as mean ± standard error of the mean (SEM) of at least three different experiments in duplicate:(1) logPe =log{C×−ln(1−[drug]acceptor/[drug]equilibrium)} where C=(VD×VA/(VD +VA)×Area×Time) .

SH-SY5Y cells = assay: Neuroprotection in SH-SY5Y against 6-hydroxydopamine (MTT); type: cell-based, human; details: 6-OHDA 100 µM; compound 0.1 µM, 24 h pre- and 24 h co-incubation
Experimental: Cells were seeded at a density of 60,000 cells/well in 96-well transparent plates for 24 h. Then cells were pre-incubated with the corresponding compound at 0.1 μM. After 24 h, the medium was removed and replaced with 1% (v/v) FBS media containing the corresponding compound at 0.1 µM and the selected toxic stimuli, namely a mixture of rotenone and oligomycin A (R/O; 30/10 μM, respectively; Sigma–Aldrich, Spain) or 6-hydroxydopamine (100 µM; Sigma–Aldrich, Spain). […].

[4] = system: nitrite production in mixed primary glial cultures; assay: Nitrite production in LPS stimulated primary mixed glial cultures (Griess); type: cell-based; details: Rattus norvegicus; 24 h pre-treatment, LPS 1 µg/mL 18 h; read-out: EC50 Nitrite Reduction
Experimental: as §1, §2

NRF2 = NRF2 induction, luciferase activity in AREc32 reporter cells; type: cell-based, human; details: for EC50: Homo sapiens, 24 h, concentration required to double luciferase activity compared to basal, read-out: CD (µM) NRF2 Induction; for fold potentiation of NRF2 induction compared to the corresponding -OMe derivative: 11, 12 vs 10, 14, 15 vs 13
Experimental: Cells were used from the third to twelfth passage.
AREc32 cells were stably transfected with the plasmid pGL-8xARE that implements 8 copies of the antioxidant response element (ARE) sequences followed by luciferase reporter gen. Therefore, NRF2 induction can be related to the activation of ARE sequences by measuring luciferase activity in terms of luminescence production. For NRF2 induction experiments, cells were plated in 96 white flat bottom well plates (20,000 cells/well). After 24 h, cells were incubated with selected compounds at the desired concentrations in duplicates for 24 h. The Luciferase Assay System (Promega E1500) was used according to provider protocol and luminescence was quantified in an Orion II microplate luminometer (Berthold, Germany). Fold induction of luciferase activity was normalized to basal conditions. Data were expressed as CD values, which means the concentration needed to duplicate the luciferase activity compared to basal conditions. CD values were calculated from dose–response curves fitted by non-linear regression for each compound after logarithmic transformation of the data using GraphPad Prism 8.0 software.

[5] = 30 min pre-incubation, 37 °C, read-out: IC50 MAO-A

SMILES | ORAC (T. eq.) [1] | IL-1β Levels % Reduction (10 μM) (IL-1β) | LD50 (µM) Mixed primary glial cultures [2] | IC50 (hrMAO-A) | PAMPA Prediction [3] | 6-OHDA Protection (%) (SH-SY5Y cells) | EC50 [4] | EC50 (NRF2; AREc32 cells) | IC50 (hrMAO-A; [5]) | fold potentiation of NRF2 induction compared to the corresponding -OMe derivative (NRF2) | luciferase activity (NRF2 induction) dose–response (NRF2; AREc32 cells, 24 h, 3, 5, and 10 µM)
C#CCN(CC#C)CCc1c[nH]c2ccc(OC)cc12 [Compound 13, N-(2-(5-Methoxy-1H-indol-3-yl)ethyl)-N-(prop-2-yn-1-yl)prop-2-yn-1-amine] | 2.09 ± 0.11 T. eq. | 67.4 ± 5.80% | > 30 µM | > 100 µM | CNS + (CNS + (high BBB permeability): Pe (10^−6 cm s^−1) > 4.0) | 87.4% | 12.6 ± 0.53 µM | 13.9 ± 1.5 µM | – | – | –
C#CCNCCc1c[nH]c2ccc(OC)cc12 [Compound 10, N-(2-(5-Methoxy-1H-indol-3-yl)ethyl)prop-2-yn-1-amine] | 2.47 ± 0.13 T. eq. | 68.4 ± 4.9% | > 30 µM | 0.826 ± 0.11 µM | CNS + (CNS + (high BBB permeability): Pe (10^−6 cm s^−1) > 4.0) | 83.5% | 16.2 ± 2.5 µM | 20.9 ± 2.2 µM | – | – | –
C#CCN(CC#C)CCc1c[nH]c2ccc(OC(=O)C=Cc3ccccc3)cc12 [Compound 14, 3-(2-(Di(prop-2-yn-1-yl)amino)ethyl)-1H-indol-5-yl Cinnamate] | 1.98 ± 0.15 T. eq. | 41.1 ± 1.7% | > 30 µM | – | CNS + (CNS + (high BBB permeability): Pe (10^−6 cm s^−1) > 4.0) | 71.7% | 19.4 ± 1.4 µM | 5.07 ± 0.23 µM | 56.6 ± 6.3 µM | 3 fold | significantly increasing luciferase activity
C#CCN(CC#C)CCc1c[nH]c2ccc(OC(=O)/C=C/c3ccc(C)cc3)cc12 [Compound 15, 3-(2-(Di(prop-2-yn-1-yl)amino)ethyl)-1H-indol-5-yl-(E)-3-(p-tolyl) Acrylate] | 1.74 ± 0.10 T. eq. | 60.5 ± 3.50% | > 30 µM | – | CNS + (CNS + (high BBB permeability): Pe (10^−6 cm s^−1) > 4.0) | 41.5% | 22.9 ± 3.3 µM | 5.76 ± 0.07 µM | > 100 µM | 3 fold | –
